Measured values published in patent EP4790048A1, “S1PR4 REGULATOR COMPOUND FOR AUTOIMMUNE DISEASE TREATMENT AND APPLICATION THEREOF” (Shengyuan Zetong (Shanghai) Pharmaceutical Co., Ltd, priority 2023, dated 2025).
Where two headings read alike, the source gives them in different places.

Experiments:
S1PR3 = molecular target: T1, S1PR3 (Homo sapiens, UniProt Q99500); assay: β-arrestin recruitment, PathHunter CHO-K1-S1PR3 cells; format: cell-based; conditions: mean ± SD
T1 construct: expressed in transfected cells
T1 sequence (Q99500 whole entry, species assumed): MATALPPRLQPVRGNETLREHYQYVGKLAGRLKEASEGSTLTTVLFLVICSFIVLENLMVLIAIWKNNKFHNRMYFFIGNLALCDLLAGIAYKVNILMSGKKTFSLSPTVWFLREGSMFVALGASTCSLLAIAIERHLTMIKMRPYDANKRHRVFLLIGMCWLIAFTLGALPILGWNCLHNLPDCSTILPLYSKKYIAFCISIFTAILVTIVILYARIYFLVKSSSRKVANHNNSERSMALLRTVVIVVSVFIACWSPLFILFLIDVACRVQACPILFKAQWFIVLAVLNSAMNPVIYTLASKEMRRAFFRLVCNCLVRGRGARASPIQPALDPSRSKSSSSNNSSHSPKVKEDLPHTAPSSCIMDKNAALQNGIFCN

[1] = Pharmacokinetic property testing in rats; format: in vivo, SD rats; conditions: for CL_obs / Vss_obs / AUC(0-t) / Cmax / half-life / Tmax / F (%): male SD rats; for AUC(0-t) / Cmax / half-life / Tmax / bioavailability: Sprague-Dawley, rat, in vivo; for Tmax: 3 per group; for bioavailability: male, oral, 10 mg/kg; for F (%): oral bioavailability, PO 10 mg/kg vs IV 1 mg/kg
Text: In the structure-activity relationship discussion, the inventors obtained key compound 22. Based on compound 22, the polar head of the compound was modified as chiral pyrrolidine carboxylic acid, yielding selective S1PR4 agonists 30 and 67. We conducted pharmacokinetic property analyses on compounds 22, 30, and 67, respectively.

mouse = assay: DSS mouse acute UC model, dosing concurrent with modeling (Example 7); format: in vivo; conditions: intragastric, Compound 30 0.3, 1, 3 mg/kg, Compound 67 1 mg/kg; for colon length: positive control RPC1063 1 mg/kg
Procedure: Mouse models were established using DSS, with the protocol being 2.5% DSS in drinking water for 5 days followed by ad libitum normal drinking water for 2 days. Intragastric administration was performed concurrently with modeling, and RPC1063 was used as the positive control drug. The specific groupings were as follows: RPC1063 was administered intragastrically at 1 mg/kg. Compound 30 was tested at three doses: 0.3 mg/kg, 1 mg/kg, and 3 mg/kg. Compound 38 was administered at 5 mg/kg, while Compounds 53, 67, 77, and 80 were each administered at 1 mg/kg.

SKG mice = assay: Curdlan-induced ankylosing spondylitis (AS) model in SKG mice; format: in vivo; conditions: compound 30 3 mg/kg; for peripheral clinical symptom scores: Week 12, compound 67 3 mg/kg intragastric daily, adalimumab 10 mg/kg i.p., P < 0.05 vs model group; for swelling of the wrist and ankle joints / spinal CT imaging scores: compound 67 3 mg/kg; for spinal CT imaging scores: adalimumab 10 mg/kg, P<0.05 vs model group
Procedure: After adaptive feeding, SKG mice were used for the experiment. Except for 5 mice as the blank control group, the other 20 mice were intraperitoneally injected with Curdlan (3 mg per mouse) at week 0 and week 2 of the experiment to establish an AS mouse model, and were randomly divided into 4 groups: model group, positive control group treated with adalimumab (10 mg/kg), compound 30 group (3 mg/kg), and compound 67 group (3 mg/kg), with 5 mice in each group. Mice in the compound 30 and 67 groups were intragastrically administered compound 30 and 67 daily starting from week 3.3 until sacrifice; the positive control group received intraperitoneal injection of adalimumab injection (first administration at week 3.3, second at week 9). Body weight was measured every week to adjust the dosage.
Clinical symptom observation of the limbs and toes were conducted, and their redness and swelling were scored, with a total score of 16 points (4 points per foot).
• 0 = No swelling • 1 = Mild swelling and redness on the top of the foot • 2 = Severe swelling and redness on the top of the foot • 3 = Severe swelling and redness in the wrist or ankle joint • 4 = Severe swelling in the wrist or ankle joint and toes.
CT scans were performed on mice at Week 13.4 and 14.3 of the experiment to obtain imaging data of the mice's bones and joints. Image WL: 1400; WW: 2000.
• 1. Spine (total 2 points): 1 point for narrowed intervertebral space, 2 points for complete fusion. • 2. Sacroiliac joints (1 point for each side, total 2 points): 0.5 points for blurred and sclerotic articular surface, 0.5 points for narrowed joint space. • 3. Zygapophyseal joints of the spine (1 point for each side, total 2 points): 0.5 points for narrowed joint space, 1 point for complete fusion.
Analysis of variance (ANOVA) was performed using IBM SPSS Statistics software to obtain statistical results of the dataset, with P < 0.05 considered statistically significant.

BALB/c mice = assay: Imiquimod-induced mouse psoriasis model; format: in vivo
Text: The imiquimod-induced mouse psoriasis model is a commonly used model for psoriasis research. This model uses the topical immune modulator imiquimod (IMQ) to induce lesions similar to human psoriasis on the skin of mice.
• Mice: Female BALB/c mice, aged 6-8 weeks. • Imiquimod cream: 5% IMQ cream. • Experimental Procedures • Animal preparation: Mice were acclimated to the laboratory environment for at least one week.
Random grouping: Generally, 5 mice were included in each group. Specifically, the groups were as follows: adalimumab injection group for positive control; compounds 30 and 67 administered by gavage, divided into 3 dosage groups: 0.3, 1, and 3 mg/kg.
The hair on the backs of the mice in each group was shaved with a razor, covering an area of approximately 2 × 3 cm^2.
5% IMQ cream was applied daily to the shaved area on the mouse backs at a dose of 62.5 mg of IMQ cream for 6-7 consecutive days. Skin reactions of the mice were observed after 7 days, including erythema, scaling, and skin thickening.

[2] = gavage 0.3, 1 and 3 mg/kg, after 7 days of IMQ
[3] = high dose of 3 mg/kg, compared with adalimumab

SMILES | EC50 (S1PR3; read-out: EC50) [µM] | CL_obs ([1]; IV (1 mg/kg)) [mL/min/kg] | Vss_obs ([1]; IV (1 mg/kg)) [L/kg] | CL_obs ([1]; PO (10 mg/kg)) [mL/min/kg] | Vss_obs ([1]; PO (10 mg/kg)) [L/kg] | AUC(0-t) ([1]; IV (1 mg/kg)) [ng·h/mL] | Cmax ([1]; IV (1 mg/kg)) [ng/mL] | half-life ([1]; IV (1 mg/kg)) [h] | Tmax ([1]; IV (1 mg/kg)) [h] | AUC(0-t) ([1]; PO (10 mg/kg)) [ng·h/mL] | Cmax ([1]; PO (10 mg/kg)) [ng/mL] | half-life ([1]; PO (10 mg/kg)) [h] | Tmax ([1]; PO (10 mg/kg)) [h] | bioavailability [1] [%] | F (%) [1] [%] | DAI scores (mouse) | body weight (mouse) | colon length (mouse) | peripheral clinical symptom scores (SKG mice) | swelling of the wrist and ankle joints (SKG mice) | further results
CCc1cc(/C(C)=N/OCc2ccc(-c3cnc(F)cn3)c(C)c2)ccc1CN1CC[C@H](C(=O)O)C1 [Compound 67, (S, E)-1-(2-ethyl-4-(1-(((4-(5-fluoropyrazin-2-yl)-3-methylbenzyl)oxy)imino)ethyl)benzyl)pyrrolidine-3-carboxylic acid] | > 10 | 19.8 ± 0.67 | 1.52 ± 0.02 | 25.8 ± 4.5 | 4.88 ± 1.17 | 836 ± 27 | 958 ± 45.9 | 1.18 ± 0.01 | 0.08 | 6370 ± 1510 | 986 ± 277 | 2.17 ± 0.11 | 1.83 ± 1.89 | 76.2 | 76.21 | favorable effects | less body weight loss | significant efficacy | significantly lower | significantly reduced swelling of the wrist and ankle joints | spinal CT imaging scores (SKG mice): significantly lower imaging scores; skin reactions (erythema, scaling, skin thickening) (BALB/c mice; [2]): significant alleviating effects at all concentrations in a dose-dependent manner; skin reactions (erythema, scaling, skin thickening) (BALB/c mice; [3]): therapeutic effects similar to those of adalimumab
CCc1cc(/C(C)=N/OCc2ccc(-c3ccccc3)c(C)c2)ccc1CN1CC[C@H](C(=O)O)C1 [Compound 30] | > 10 | 20.2 ± 7.33 | 3.59 ± 1.16 | 17 ± 1.3 | 4.08 ± 0.32 | 824 ± 284 | 438 ± 82.6 | 2.15 ± 0.06 | 0.08 | 9860 ± 794 | 1030 ± 91.9 | 2.78 ± 0.12 | 2 | 120 | 119.7 | favorable effects | concentration-dependent recovery | significant efficacy | significantly lower | significantly reduced swelling of the wrist and ankle joints | EC50 (S1PR3): no agonist activity; spinal CT imaging scores (SKG mice): significantly lower imaging scores; skin reactions (erythema, scaling, skin thickening) (BALB/c mice; [2]): significant alleviating effects at all concentrations in a dose-dependent manner; skin reactions (erythema, scaling, skin thickening) (BALB/c mice; [3]): therapeutic effects similar to those of adalimumab
